According to article PMC6715294 (Molecular cancer therapeutics, 2018):

Assays:
[1] = molecular target: AKT2 (Homo sapiens, UniProt P31751); test: ADP-Glo kinase assay with active AKT2; format: biochemical
[2] = molecular target: AKT1 (Homo sapiens, UniProt P31749); test: ADP-Glo kinase assay with active AKT1; format: biochemical
Chain of AKT1 (P31749 whole entry): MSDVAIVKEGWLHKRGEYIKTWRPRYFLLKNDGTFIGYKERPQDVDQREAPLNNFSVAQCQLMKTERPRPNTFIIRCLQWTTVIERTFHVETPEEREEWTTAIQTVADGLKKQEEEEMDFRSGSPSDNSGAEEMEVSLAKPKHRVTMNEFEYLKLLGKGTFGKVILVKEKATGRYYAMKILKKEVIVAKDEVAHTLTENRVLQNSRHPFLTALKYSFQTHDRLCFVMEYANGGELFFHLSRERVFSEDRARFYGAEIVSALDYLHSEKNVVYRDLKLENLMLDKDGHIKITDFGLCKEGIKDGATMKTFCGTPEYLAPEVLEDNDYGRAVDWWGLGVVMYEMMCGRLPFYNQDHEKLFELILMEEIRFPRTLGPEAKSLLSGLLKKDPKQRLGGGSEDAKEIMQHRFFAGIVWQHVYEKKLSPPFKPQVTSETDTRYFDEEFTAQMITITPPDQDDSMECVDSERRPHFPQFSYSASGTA

Chain of AKT2 (P31751 whole entry): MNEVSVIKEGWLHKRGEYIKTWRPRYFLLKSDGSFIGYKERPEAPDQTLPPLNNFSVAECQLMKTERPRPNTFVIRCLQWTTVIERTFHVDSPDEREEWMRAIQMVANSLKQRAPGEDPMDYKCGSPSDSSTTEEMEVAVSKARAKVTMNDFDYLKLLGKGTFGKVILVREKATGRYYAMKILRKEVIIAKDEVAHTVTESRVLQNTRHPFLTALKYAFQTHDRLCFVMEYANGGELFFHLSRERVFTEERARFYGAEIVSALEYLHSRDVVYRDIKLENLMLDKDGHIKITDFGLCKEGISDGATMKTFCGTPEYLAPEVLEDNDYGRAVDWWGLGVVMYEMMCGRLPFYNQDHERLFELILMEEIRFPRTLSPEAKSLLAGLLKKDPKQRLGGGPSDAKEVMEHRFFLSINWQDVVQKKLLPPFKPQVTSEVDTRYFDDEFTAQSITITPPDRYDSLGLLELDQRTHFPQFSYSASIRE

C=C1C(=O)[C@]23[C@H](O)[C@H]1CC[C@H]2[C@@]12CO[C@]3(O)[C@@H](O)[C@@H]1C(C)(C)CC[C@@H]2O [oridonin]
IC50 [1]: 8.9 ± 0.92 µM
IC50 [2]: 8.4 ± 1.34 µM
